The subject of one experiment is MKN45 cells. Nature of the experiment: MKN45 cell proliferation assay (CellTiter-Glo). It counts as cell-based. The following applies: Homo sapiens, MKN-45, 72 h; MKN45 cell line; 3 days incubation; at least duplicate experiments; read-out: Prolif. IC50.
Another experiment deals with T1, RON (Homo sapiens, UniProt Q04912).
T1 sequence (Q04912 913-1400): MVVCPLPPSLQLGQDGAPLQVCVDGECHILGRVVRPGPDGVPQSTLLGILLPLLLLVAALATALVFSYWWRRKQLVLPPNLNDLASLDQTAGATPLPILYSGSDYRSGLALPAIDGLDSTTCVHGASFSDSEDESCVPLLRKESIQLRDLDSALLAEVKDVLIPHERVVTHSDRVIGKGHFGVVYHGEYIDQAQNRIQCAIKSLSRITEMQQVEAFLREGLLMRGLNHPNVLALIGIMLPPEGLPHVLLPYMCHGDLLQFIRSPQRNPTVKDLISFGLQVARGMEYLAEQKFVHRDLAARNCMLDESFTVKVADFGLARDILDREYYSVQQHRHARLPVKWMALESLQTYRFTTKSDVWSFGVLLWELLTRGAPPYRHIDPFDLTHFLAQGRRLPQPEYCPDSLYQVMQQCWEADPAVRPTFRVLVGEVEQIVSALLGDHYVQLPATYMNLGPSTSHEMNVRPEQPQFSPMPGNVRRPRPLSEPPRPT
Nature of the experiment: sfRON cell mechanistic assay (HeLa), phosphorylated RON ELISA. It counts as cell-based. The note with it: HeLa cells transfected with sfRON; inhibition of phosphorylated RON; four hours incubation; at least duplicate experiments; read-out: sfRON mech IC50. Summed up: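 HeLa cells transiently transfected with sfRON plasmid, then exposed 4 h at 37 °C to a 6-point compound series (typically 10 μM to 3 nM, 0.5% DMSO). Phospho-RON (pY1238/1239) in lysates measured by sandwich ELISA with luminescence. IC50 from 4-parameter fit of percent-of-DMSO-control data, at least duplicate runs.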
For orientation: An ELISA detects its analyte on a solid surface through an enzyme-linked reagent.

With `Cc1c(-c2cnc3[nH]cc([C@H](C)c4c(O)ccc(F)c4Cl)c3c2)cnn1[C@H]1CC[C@H](O)CC1` [Example 102, 3-Chloro-4-fluoro-2-[(1S)-1-{5-[1-(trans-4-hydroxycyclohexyl)-5-methyl-1H-pyrazol-4-yl]-1H-pyrrolo[2,3-b]pyridin-3-yl}ethyl]phenol], the IC50 is at most 50 nM in the experiment with MKN45 cells and 200 to 1000 nM at RON.

`CCOc1ccc(F)c(Cl)c1[C@@H](C)c1c[nH]c2ncc(-c3cnn([C@H]4CC[C@H](O)CC4)c3C)cc12` [Example 103, trans-4-(4-{3-[(1S)-1-(2-Chloro-6-ethoxy-3-fluorophenyl)ethyl]-1H-pyrrolo[2,3-b]pyridin-5-yl}-5-methyl-1H-pyrazol-1-yl)cyclohexanol]: the values for the half-inhibitory concentration (IC50) in the experiment on MKN45 cells and at RON were at most 50 nM and at most 200 nM, respectively.

`Cc1c(-c2cnc3[nH]cc([C@H](C)c4c(OC(C)C)ccc(F)c4Cl)c3c2)cnn1[C@H]1CC[C@H](O)CC1` [Example 104, trans-4-[4-(3-{(1S)-1-[2-Chloro-3-fluoro-6-(propan-2-yloxy)phenyl]ethyl}-1H-pyrrolo[2,3-b]pyridin-5-yl)-5-methyl-1H-pyrazol-1-yl]cyclohexanol]: the IC50 in the experiment on MKN45 cells is at most 50 nM; at RON, 200 to 1000 nM.

Turning to `Cc1c(-c2cnc3[nH]cc([C@H](C)c4c(OCC(F)(F)F)ccc(F)c4Cl)c3c2)cnn1[C@H]1CC[C@H](O)CC1` [Example 105, trans-4-[4-(3-{(1S)-1-[2-Chloro-3-fluoro-6-(2,2,2-trifluoroethoxy)-phenyl]ethyl}-1H-pyrrolo[2,3-b]pyridin-5-yl)-5-methyl-1H-pyrazol-1-yl]cyclohexanol], the figures for the IC50 in the experiment on MKN45 cells and on RON were at most 50 nM and at most 200 nM, respectively.

`COc1cc(OC)c(Cl)c([C@@H](C)c2c[nH]c3ncc(-c4cnn([C@H]5CC[C@H](O)CC5)c4C)cc23)c1Cl` [Example 106, trans-4-(4-{3-[(1S)-1-(2,6-Dichloro-3,5-dimethoxyphenyl)ethyl]-1H-pyrrolo[2,3-b]pyridin-5-yl}-5-methyl-1H-pyrazol-1-yl)cyclohexanol]: the IC50 in the experiment on MKN45 cells was at most 50 nM; on RON, 200 to 1000 nM.

`[2H]C([2H])([2H])Oc1ccc(F)c(Cl)c1[C@@H](C)c1c[nH]c2ncc(-c3cnn([C@H]4CC[C@H](O)CC4)c3C)cc12` [Example 107, trans-4-(4-{3-[(1S)-1-{2-Chloro-3-fluoro-6-[(^2H3)methyloxy]phenyl}ethyl]-1H-pyrrolo[2,3-b]pyridin-5-yl}-5-methyl-1H-pyrazol-1-yl)cyclohexanol]: the IC50 with MKN45 cells is at most 50 nM; at RON, 200 to 1000 nM.

On to `Cc1c(-c2cnc3[nH]cc(C(C#N)c4c(Cl)ccc(F)c4Cl)c3c2)cnn1[C@H]1CC[C@H](O)CC1` (stereo partly drawn) [Example 108, (2,6-Dichloro-3-fluorophenyl){5-[1-(trans-4-hydroxycyclohexyl)-5-methyl-1H-pyrazol-4-yl]-1H-pyrrolo[2,3-b]pyridin-3-yl}acetonitrile], for which the IC50 in the experiment with MKN45 cells was 50 to 200 nM; on RON, over 1000 nM.

Regarding `[2H][C@@](C)(c1c(OC)ccc(F)c1Cl)c1c[nH]c2ncc(-c3cnn([C@H]4CC[C@H](O)CC4)c3C)cc12` [Example 110, trans-4-(4-{3-[(1S)-1-(2-Chloro-3-fluoro-6-methoxyphenyl)(1-^2H)ethyl]-1H-pyrrolo[2,3-b]pyridin-5-yl}-5-methyl-1H-pyrazol-1-yl)cyclohexanol], the IC50 with MKN45 cells is at most 50 nM; on RON, 200 to 1000 nM.

Consider `[2H]C([2H])([2H])[C@H](c1c(OC)ccc(F)c1Cl)c1c[nH]c2ncc(-c3cnn([C@H]4CC[C@H](O)CC4)c3C)cc12` [Example 111, trans-4-(4-{3-[(1S)-1-(2-Chloro-3-fluoro-6-methoxyphenyl)(2,2,2-^2H3)ethyl]-1H-pyrrolo[2,3-b]pyridin-5-yl}-5-methyl-1H-pyrazol-1-yl)cyclohexanol], for which the 50% inhibitory concentration (IC50) in the experiment with MKN45 cells is at most 50 nM; at RON, 200 to 1000 nM.

On to `COc1ccc(F)c(Cl)c1[C@@H](CF)c1c[nH]c2ncc(-c3cnn([C@H]4CC[C@H](O)CC4)c3C)cc12` [Example 121, trans-4-(4-{3-[(1S)-1-(2-Chloro-3-fluoro-6-methoxyphenyl)-2-fluoroethyl]-1H-pyrrolo[2,3-b]pyridin-5-yl}-5-methyl-1H-pyrazol-1-yl)cyclohexanol], for which the values for the IC50 with MKN45 cells and on RON were at most 50 nM and 200 to 1000 nM, respectively.

Consider `Cc1c(-c2cnc3[nH]cc([C@@H](CF)c4c(OC(F)F)ccc(F)c4Cl)c3c2)cnn1[C@H]1CC[C@H](O)CC1` [Example 123, trans-4-[4-(3-{(1R)-1-[2-chloro-6-(difluoromethoxy)-3-fluorophenyl]-2-fluoroethyl}-1H-pyrrolo[2,3-b]pyridin-5-yl)-5-methyl-1H-pyrazol-1-yl]cyclohexanol], for which the IC50 in the experiment with MKN45 cells and at RON was 200 to 1000 nM each time.

`Cc1c(-c2cnc3[nH]cc([C@H](CF)c4c(OC(F)F)ccc(F)c4Cl)c3c2)cnn1[C@H]1CC[C@H](O)CC1` [Example 124, trans-4-[4-(3-{(1S)-1-[2-chloro-6-(difluoromethoxy)-3-fluorophenyl]-2-fluoroethyl}-1H-pyrrolo[2,3-b]pyridin-5-yl)-5-methyl-1H-pyrazol-1-yl]cyclohexanol]: the IC50 with MKN45 cells is at most 50 nM; on RON, at most 200 nM.

As for `C[C@H](c1c(OC(F)F)ccc(F)c1Cl)c1c[nH]c2ncc(-c3cnc(N4CCC(O)CC4)n3C)cc12` [Example 125, 1-[5-(3-{(1S)-1-[2-Chloro-6-(difluoromethoxy)-3-fluorophenyl]ethyl}-1H-pyrrolo[2,3-b]pyridin-5-yl)-1-methyl-1H-imidazol-2-yl]piperidin-4-ol], the IC50 in the experiment on MKN45 cells is at most 50 nM; on RON it was at most 200 nM.

Take `C[C@H](c1c(OC(F)F)ccc(F)c1Cl)c1c[nH]c2ncc(-c3cnc([C@H]4CC[C@H](O)CC4)n3C)cc12` [Example 126, trans-4-[5-(3-{(1S)-1-[2-Chloro-6-(difluoromethoxy)-3-fluorophenyl]ethyl}-1H-pyrrolo[2,3-b]pyridin-5-yl)-1-methyl-1H-imidazol-2-yl]cyclohexanol]: the 50% inhibitory concentration (IC50) in the experiment with MKN45 cells was at most 50 nM; on RON, at most 200 nM.

The term IC50 denotes the concentration at which inhibition is half-maximal.

(Values after patent publication US8445510B2, “Fused bicyclic kinase inhibitors” (OSI Pharmaceuticals, LLC, priority 2011, dated 2013).)
